# Laboratory results as given in PubChem BioAssay AID192 (DTP/NCI, 2004).
# Where “and” joins values, the source holds several entries; their conditions need not be identical. Equal entries are not always repeated. Toxic doses and inconclusive results are not listed. Square brackets hold non-standard residues; d marks the D form. Peptide text beside a SMILES is read from it. ξ: configuration not given here. ξV = CC(C)C(N)C(=O)O
# Tested on: BDF1 mice, B16 melanoma ip, median survival T/C
# Experiment: NCI In Vivo Anticancer Drug Screen. Data for tumor model B16 Melanoma (intraperitoneal) in B6D2F1 (BDF1) mice
# Details: endpoint: median survival time, higher = longer survival
# Outline: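 Read-out: survival or tumor size, given as treated/control ratio. Controls received vehicle only; animals bore transplantable tumors.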
# [1] = dose: 12.5 mg/kg/injection, schedule: Q01DX009 (ip), vehicle: saline with Tween-80
# [2] = dose: 25.0 mg/kg/injection, schedule: Q01DX009 (ip), vehicle: Klucel (hydroxypropylcellulose) (HPC)
# [3] = dose: 25.0 mg/kg/injection, schedule: Q01DX009 (ip), vehicle: saline with Tween-80
# [4] = dose: 50.0 mg/kg/injection, schedule: Q04DX003 (ip), vehicle: saline with Tween-80
# [5] = dose: 100.0 mg/kg/injection, schedule: Q04DX003 (ip), vehicle: saline with Tween-80
# [6] = dose: 100.0 mg/kg/injection, schedule: Q01DX009 (ip), vehicle: Klucel (hydroxypropylcellulose) (HPC)
# [7] = dose: 25.0 mg/kg/injection, schedule: Q01DX009 (ip), vehicle: saline
# [8] = dose: 50.0 mg/kg/injection, schedule: Q01DX009 (ip), vehicle: saline
# [9] = dose: 100.0 mg/kg/injection, schedule: Q01DX009 (ip), vehicle: saline
# [10] = dose: 50.0 mg/kg/injection, schedule: Q01DX009 (ip), vehicle: saline with Tween-80
# [11] = dose: 100.0 mg/kg/injection, schedule: Q01DX009 (ip), vehicle: saline with Tween-80
# [12] = dose: 200.0 mg/kg/injection, schedule: Q04DX003 (ip), vehicle: saline with Tween-80
# [13] = dose: 100.0 mg/kg/injection, schedule: Q04DX003 (ip), vehicle: saline
# [14] = dose: 200.0 mg/kg/injection, schedule: Q01DX009 (ip), vehicle: saline
# [15] = dose: 200.0 mg/kg/injection, schedule: Q04DX003 (ip), vehicle: saline
# [16] = dose: 400.0 mg/kg/injection, schedule: Q01DX009 (ip), vehicle: saline
# [17] = dose: 400.0 mg/kg/injection, schedule: Q04DX003 (ip), vehicle: saline
structure (smiles),measurement,setting,value
CC(C)C[NH-].CC(C)C[NH-].O.O.[Cl][Pt+2][Cl],T/C,"dose: 10.0 mg/kg/injection, schedule: Q01DX009 (ip), vehicle: other",151 % of control
same,T/C,"dose: 30.0 mg/kg/injection, schedule: Q01DX009 (ip), vehicle: other",160 % of control
same,T/C,"dose: 40.0 mg/kg/injection, schedule: Q01DX009 (ip), vehicle: other",214 % of control
same,T/C,"dose: 50.0 mg/kg/injection, schedule: Q01DX009 (ip), vehicle: other",169 % of control
O=C(Nc1ccc(C(=O)O)cc1)Oc1ccc(N(CCCl)CCCl)cc1,T/C,"dose: 3.13 mg/kg/injection, schedule: Q04DX003 (ip), vehicle: saline with Tween-80",109 % of control
same,T/C,"dose: 6.25 mg/kg/injection, schedule: Q04DX003 (ip), vehicle: saline with Tween-80",109 % of control
same,T/C,[1],165 % of control
same,T/C,"dose: 12.5 mg/kg/injection, schedule: Q04DX003 (ip), vehicle: saline with Tween-80",123 % of control
same,T/C,[2],154 % of control
same,T/C,[3],110 % of control
same,T/C,"dose: 25.0 mg/kg/injection, schedule: Q04DX003 (ip), vehicle: saline with Tween-80",151 % of control
same,T/C,[4],164 % of control
same,T/C,[5],205 % of control
Nc1n[nH]c(C(=O)O)n1,T/C,[6],97 % of control
same,T/C,"dose: 200.0 mg/kg/injection, schedule: Q01DX009 (ip), vehicle: Klucel (hydroxypropylcellulose) (HPC)",97 % of control
same,T/C,"dose: 400.0 mg/kg/injection, schedule: Q01DX009 (ip), vehicle: Klucel (hydroxypropylcellulose) (HPC)",97 % of control
C1=NCCCN1,T/C,[7],114 % of control
same,T/C,[8],117 % of control
same,T/C,[9],113 % of control
N#CCc1ccccc1C(=O)O,T/C,"dose: 100.0 mg/kg/injection, schedule: Q04DX003 (ip), vehicle: gum acacia",97 % of control
Cn1cnc([N+](=O)[O-])c1[Se]c1nc(N)nc2nc[nH]c12,T/C,"dose: 3.12 mg/kg/injection, schedule: Q01DX009 (ip), vehicle: water",109 % of control
same,T/C,"dose: 6.25 mg/kg/injection, schedule: Q01DX009 (ip), vehicle: water",117 % of control
same,T/C,"dose: 11.0 mg/kg/injection, schedule: Q01DX009 (ip), vehicle: other",116 % of control
same,T/C,"dose: 12.5 mg/kg/injection, schedule: Q01DX009 (ip), vehicle: water",150 % of control
same,T/C,"dose: 16.5 mg/kg/injection, schedule: Q01DX009 (ip), vehicle: other",117 % of control
same,T/C,"dose: 25.0 mg/kg/injection, schedule: Q01DX009 (ip), vehicle: water",153 % of control and 158 % of control
O=C1C=C(c2ccccc2)C(O)(c2ccccc2)C1 (stereo not drawn),T/C,[10],97 % of control
same,T/C,[11],97 % of control
same,T/C,"dose: 200.0 mg/kg/injection, schedule: Q01DX009 (ip), vehicle: saline with Tween-80",88 % of control
COc1cc2cc(c1Cl)N(C)C(=O)CC(OC(=O)C(C)C)C1(C)OC1C(C)C1CC(O)(NC(=O)O1)C(OC)/C=C/C=C(C)C2 (stereo not drawn),T/C,"dose: 3.1 micrograms/kg/injection, schedule: Q01DX009 (ip), vehicle: saline + alcohol",124 % of control
same,T/C,"dose: 6.25 micrograms/kg/injection, schedule: Q01DX009 (ip), vehicle: saline + alcohol",169 % of control
same,T/C,"dose: 7.0 micrograms/kg/injection, schedule: Q01DX009 (ip), vehicle: saline + alcohol",150 % of control
same,T/C,"dose: 12.5 micrograms/kg/injection, schedule: Q01DX009 (ip), vehicle: saline + alcohol",152 % of control and 168 % of control
same,T/C,"dose: 15.0 micrograms/kg/injection, schedule: Q01DX009 (ip), vehicle: saline + alcohol",165 % of control
same,T/C,"dose: 25.0 micrograms/kg/injection, schedule: Q01DX009 (ip), vehicle: saline + alcohol",157 % of control and 160 % of control and 165 % of control
same,T/C,"dose: 30.0 micrograms/kg/injection, schedule: Q01DX009 (ip), vehicle: saline + alcohol",178 % of control
same,T/C,"dose: 50.0 micrograms/kg/injection, schedule: Q01DX009 (ip), vehicle: saline + alcohol",164 % of control and 176 % of control
same,T/C,"dose: 60.0 micrograms/kg/injection, schedule: Q01DX009 (ip), vehicle: saline + alcohol",182 % of control
CCC(C#N)=C1CCCCC1,T/C,[3],102 % of control
same,T/C,[10],106 % of control
same,T/C,[11],114 % of control
CCOC(=O)C(Cc1ccccc1)P(=O)(OCC)OCC (stereo not drawn),T/C,[4],100 % of control
same,T/C,[5],95 % of control
same,T/C,[12],90 % of control
COC(OC(CO)C(O)S(=O)(=O)O)C(O)S(=O)(=O)O (stereo not drawn),T/C,"dose: 12.5 mg/kg/injection, schedule: Q01DX009 (ip), vehicle: saline",104 % of control
same,T/C,[7],107 % of control
same,T/C,[8],111 % of control
same,T/C,[9],119 % of control
CC(CCc1ccccc1)NC(C)C(O)c1ccc(O)cc1 (stereo not drawn),T/C,"dose: 6.25 mg/kg/injection, schedule: Q01DX009 (ip), vehicle: Klucel (hydroxypropylcellulose) (HPC)",93 % of control
same,T/C,"dose: 12.5 mg/kg/injection, schedule: Q01DX009 (ip), vehicle: Klucel (hydroxypropylcellulose) (HPC)",105 % of control
same,T/C,[2],94 % of control
same,T/C,"dose: 50.0 mg/kg/injection, schedule: Q01DX009 (ip), vehicle: Klucel (hydroxypropylcellulose) (HPC)",105 % of control
same,T/C,[6],115 % of control
CC1=NCCc2c1cc1c([nH]c3ccccc31)c2C,T/C,[1],105 % of control
same,T/C,[3],110 % of control
CCS(=O)(=O)OCCCl,T/C,[3],104 % of control
same,T/C,[10],100 % of control
same,T/C,[11],103 % of control
NCC(=O)NC(CO)C(=O)O (stereo not drawn),T/C,[9],90 % of control
same,T/C,[13],100 % of control
same,T/C,[14],106 % of control
same,T/C,[15],102 % of control
same,T/C,[16],95 % of control
same,T/C,[17],95 % of control
O=c1cc[nH]c(=O)[nH]1,T/C,"dose: 32.0 mg/kg/injection, schedule: Q01DX009 (ip), vehicle: Klucel (hydroxypropylcellulose) (HPC)",99 % of control and 100 % of control
same,T/C,"dose: 32.0 mg/kg/injection, schedule: Q01DX009 (ip), vehicle: saline with Tween-80",93 % of control
same,T/C,"dose: 64.0 mg/kg/injection, schedule: Q01DX009 (ip), vehicle: Klucel (hydroxypropylcellulose) (HPC)",98 % of control and 106 % of control
same,T/C,"dose: 64.0 mg/kg/injection, schedule: Q01DX009 (ip), vehicle: saline with Tween-80",93 % of control
same,T/C,"dose: 128.0 mg/kg/injection, schedule: Q01DX009 (ip), vehicle: Klucel (hydroxypropylcellulose) (HPC)",101 % of control and 106 % of control
same,T/C,"dose: 128.0 mg/kg/injection, schedule: Q01DX009 (ip), vehicle: saline with Tween-80",98 % of control
same,T/C,"dose: 256.0 mg/kg/injection, schedule: Q01DX009 (ip), vehicle: Klucel (hydroxypropylcellulose) (HPC)",100 % of control and 102 % of control
same,T/C,"dose: 256.0 mg/kg/injection, schedule: Q01DX009 (ip), vehicle: saline with Tween-80",90 % of control
same,T/C,"dose: 512.0 mg/kg/injection, schedule: Q01DX009 (ip), vehicle: Klucel (hydroxypropylcellulose) (HPC)",102 % of control and 105 % of control
same,T/C,"dose: 512.0 mg/kg/injection, schedule: Q01DX009 (ip), vehicle: saline with Tween-80",92 % of control
CC(C)C(NC(=O)CN)C(=O)O (stereo not drawn) (H-Gly-[ξV]-OH),T/C,[9],102 % of control
same,T/C,[13],102 % of control
same,T/C,[14],100 % of control
same,T/C,[15],97 % of control
same,T/C,[16],90 % of control
same,T/C,[17],95 % of control
O=C(O)C1OC1C(=O)O (stereo not drawn),T/C,"dose: 75.0 mg/kg/injection, schedule: Q01DX009 (ip), vehicle: saline",120 % of control
same,T/C,"dose: 300.0 mg/kg/injection, schedule: Q01DX009 (ip), vehicle: saline",118 % of control
CCCC(=O)Nc1ncnc2c1ncn2C1OC2COP(=O)(O)OC2C1OC(=O)CCC (stereo not drawn),T/C,[8],100 % of control
same,T/C,[9],94 % of control
same,T/C,[14],89 % of control
CC12C=CC(C=C1)C(O)C2 (stereo not drawn),T/C,[5],112 % of control
same,T/C,[12],93 % of control
same,T/C,"dose: 400.0 mg/kg/injection, schedule: Q04DX003 (ip), vehicle: saline with Tween-80",101 % of control
